In patent US12077503B2, “Substituted cyclic amides and their use as herbicides” (FMC CORPORATION, priority 2015, dated 2024):

Tests used:
Assay type in all cases: in vivo
[1] = test system: ryegrass, Italian (Italian ryegrass, Lolium multiflorum); experiment: Test A preemergence; conditions: Lolium multiflorum, pre-emergence, 240 h, 0 to 100 scale where 0 is no effect and 100 is complete control, read-out: Ryegrass, Italian plant response rating
Procedure, shortened: (§1)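 Preemergence directed soil spray on seeded pots, or postemergence application to plants 2–10 cm, one- to two-leaf. Solvent mixture non-phytotoxic, with surfactant. Scored ~10 d later, visually, 0–100 vs untreated.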

[2] = test system: barnyardgrass (Echinochloa crus-galli); experiment: Test A preemergence; conditions: Echinochloa crus-galli, pre-emergence, 240 h, 0 to 100 scale where 0 is no effect and 100 is complete control, read-out: Barnyardgrass plant response rating
Procedure, shortened: as §1

[3] = test system: ragweed (common ragweed, Ambrosia elatior); experiment: Test A preemergence; conditions: Ambrosia artemisiifolia, pre-emergence, 240 h, 0 to 100 scale where 0 is no effect and 100 is complete control, read-out: Ragweed plant response rating
Procedure, shortened: as §1

Kochia (Kochia scoparia) [4] = experiment: Test A preemergence; conditions: Bassia scoparia, pre-emergence, 240 h, 0 to 100 scale where 0 is no effect and 100 is complete control, read-out: Kochia plant response rating
Procedure, shortened: as §1

[5] = test system: giant foxtail (Setaria faberii); experiment: Test A preemergence; conditions: Setaria faberi, pre-emergence, 240 h, 0 to 100 scale where 0 is no effect and 100 is complete control, read-out: Foxtail, Giant plant response rating
Procedure, shortened: as §1

[6] = test system: pigweed (Amaranthus retroflexus); experiment: Test A preemergence; conditions: Amaranthus retroflexus, pre-emergence, 240 h, 0 to 100 scale where 0 is no effect and 100 is complete control, read-out: Pigweed plant response rating
[7] = test system: blackgrass (Alopecurus myosuroides); experiment: Test A postemergence; conditions: Alopecurus myosuroides, post-emergence, 240 h, read-out: Blackgrass plant response rating (0 to 100 scale)
Procedure, shortened: as §1

[8] = test system: ryegrass, Italian (Italian ryegrass, Lolium multiflorum); experiment: Test A postemergence; conditions: Lolium multiflorum, post-emergence, 240 h, read-out: Ryegrass, Italian plant response rating (0 to 100 scale)
Procedure, shortened: as §1

[9] = test system: Galium (catchweed bedstraw, Galium aparine); experiment: Test A postemergence; conditions: Galium, post-emergence, 240 h, read-out: Galium plant response rating (0 to 100 scale)
Procedure, shortened: as §1

corn (Zea mays) = experiment: Test A postemergence; conditions: Zea mays, post-emergence, 240 h, read-out: Corn plant response rating (0 to 100 scale)
Procedure, shortened: as §1

[10] = test system: wheat (Triticum aestivum); experiment: Test A postemergence; conditions: Triticum aestivum, post-emergence, 240 h, Postemergence, 31 g ai/ha; 0 is no effect, 100 is complete control; read-out: Wheat plant response rating (0 to 100 scale)
Procedure, shortened: as §1

[11] = test system: barnyardgrass (Echinochloa crus-galli); experiment: Test A postemergence; conditions: Echinochloa crus-galli, post-emergence, 240 h, read-out: Barnyardgrass plant response rating (0 to 100 scale)
Procedure, shortened: as §1

[12] = test system: ragweed (common ragweed, Ambrosia elatior); experiment: Test A postemergence; conditions: Ambrosia artemisiifolia, post-emergence, 240 h, read-out: Ragweed plant response rating (0 to 100 scale)
Procedure, shortened: as §1

Kochia (Kochia scoparia) [13] = experiment: Test A postemergence; conditions: Bassia scoparia, post-emergence, 240 h, read-out: Kochia plant response rating (0 to 100 scale)
Procedure, shortened: as §1

[14] = test system: giant foxtail (Setaria faberii); experiment: Test A postemergence; conditions: Setaria faberi, post-emergence, 240 h, read-out: Foxtail, Giant plant response rating (0 to 100 scale)
Procedure, shortened: as §1

[15] = test system: pigweed (Amaranthus retroflexus); experiment: Test A postemergence; conditions: Amaranthus retroflexus, post-emergence, 240 h, read-out: Pigweed plant response rating (0 to 100 scale)
Procedure, shortened: as §1

[16] = test system: barnyardgrass (Echinochloa crus-galli); experiment: Test B flooded paddy test; conditions: Echinochloa crus-galli, 250 g ai/ha, Flood; 0 to 100 scale where 0 is no effect and 100 is complete control; read-out: Barnyardgrass plant response rating
Procedure, shortened: (§2)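 Evaluation by eye, against controls, occurred 13–15 d post-treatment in a greenhouse, using a 0 (no effect) to 100 (complete control) scale. Application was into the paddy water, 3 cm deep over the soil, on 2-leaf plants.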

[17] = test system: sedge, umbrella (small-flower umbrella sedge, Cyperus difformis); experiment: Test B flooded paddy test; conditions: Cyperus difformis, 250 g ai/ha, Flood; 0 to 100 scale where 0 is no effect and 100 is complete control; read-out: Sedge, Umbrella plant response rating
Procedure, shortened: as §2

rice (Oryra sativa) = experiment: Test B flooded paddy test; conditions: Oryza sativa, 250 g ai/ha, Flood; 0 to 100 scale where 0 is no effect and 100 is complete control; read-out: Rice plant response rating
Procedure, shortened: as §2

[18] = test system: ducksalad (Heteranthera limosa); experiment: Test B flooded paddy test; conditions: Heteranthera limosa, 250 g ai/ha, Flood; 0 to 100 scale where 0 is no effect and 100 is complete control; read-out: Ducksalad plant response rating
Procedure, shortened: as §2

[19] = 125 g ai/ha, preemergence, visual injury rating, approximately 10 d
[20] = 125 g ai/ha, postemergence, visual injury vs untreated controls after approx. 10 d, 0 = no effect, 100 = complete control
[21] = Postemergence, 31 g ai/ha, 0 is no effect, 100 is complete control

CN1C[C@H](c2ccc(Cl)c(F)c2)[C@@H](C(=O)Nc2cccc(F)c2F)C1=O [Compound 1265]
pest or weed control at 31 g/ha ([1]; 31 g ai/ha, Preemergence): 50% | pest or weed control at 125 g/ha [1, 19]: 60% | pest or weed control at 31 g/ha ([2]; 31 g ai/ha, Preemergence): 80% | pest or weed control at 125 g/ha [2, 19]: 90% | pest or weed control at 31 g/ha ([3]; 31 g ai/ha, Preemergence): 0% | pest or weed control at 125 g/ha [3, 19]: 0% | pest or weed control at 31 g/ha (Kochia (Kochia scoparia) [4]; 31 g ai/ha, Preemergence): 30% | pest or weed control at 125 g/ha (Kochia (Kochia scoparia) [4]; [19]): 70% | pest or weed control at 31 g/ha ([5]; 31 g ai/ha, Preemergence): 90% | pest or weed control at 125 g/ha [5, 19]: 90% | pest or weed control at 31 g/ha ([6]; 31 g ai/ha, Preemergence): 0% | pest or weed control at 125 g/ha [6, 19]: 80% | pest or weed control at 125 g/ha [7, 20]: 50% | pest or weed control at 31 g/ha [7, 21]: 0% | pest or weed control at 125 g/ha [8, 20]: 30% | pest or weed control at 31 g/ha [8, 21]: 0% | pest or weed control at 125 g/ha [9, 20]: 60% | pest or weed control at 31 g/ha [9, 21]: 60% | plant injury at 125 g/ha (corn (Zea mays); [20]): 70% | plant injury at 31 g/ha (corn (Zea mays); [21]): 30% | plant injury at 31 g/ha [10]: 0% | pest or weed control at 125 g/ha [11, 20]: 90% | pest or weed control at 31 g/ha [11, 21]: 80% | pest or weed control at 125 g/ha [12, 20]: 30% | pest or weed control at 31 g/ha [12, 21]: 0% | pest or weed control at 125 g/ha (Kochia (Kochia scoparia) [13]; [20]): 70% | pest or weed control at 31 g/ha (Kochia (Kochia scoparia) [13]; [21]): 50% | pest or weed control at 125 g/ha [14, 20]: 80% | pest or weed control at 31 g/ha [14, 21]: 80% | pest or weed control at 125 g/ha [15, 20]: 70% | pest or weed control at 31 g/ha [15, 21]: 30% | pest or weed control at 250 g/ha [16]: 60% | pest or weed control at 250 g/ha [17]: 0% | pest or weed control at 250 g/ha (rice (Oryra sativa)): 45% | pest or weed control at 250 g/ha [18]: 90%
